In PubChem BioAssay AID248 (DTP/NCI, 2004):
Where “and” joins values, the source holds several entries; their conditions need not be identical. Identical values can stand only once. Inconclusive results and toxic doses are left out. No stated cut-off is given here; in the data, active means T/C of 150% or more; inactive means T/C below 125%.

Tested on: L1210 leukemia ip in BDF1 mice, survival T/C
Test: NCI In Vivo Anticancer Drug Screen. Data for tumor model L1210 Leukemia (intraperitoneal) in B6D2F1 (BDF1) mice
Conditions: endpoint: mean survival time, higher = longer survival
Summary of the method: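 Each compound was tested against a transplantable tumor grown in mice. The endpoint was survival, with treated animals benchmarked against vehicle controls as a simple ratio.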

[1] = dose: 100.0 mg/kg/injection, schedule: Q01DX001 (ip), vehicle: carboxymethylcellulose (CMC)
[2] = dose: 200.0 mg/kg/injection, schedule: Q01DX001 (ip), vehicle: carboxymethylcellulose (CMC)
[3] = dose: 400.0 mg/kg/injection, schedule: Q01DX001 (ip), vehicle: carboxymethylcellulose (CMC)
[4] = dose: 50.0 mg/kg/injection, schedule: Q01DX009 (ip), vehicle: Klucel (hydroxypropylcellulose) (HPC)
[5] = dose: 100.0 mg/kg/injection, schedule: Q01DX009 (ip), vehicle: Klucel (hydroxypropylcellulose) (HPC)
[6] = dose: 100.0 mg/kg/injection, schedule: Q04DX003 (ip), vehicle: Klucel (hydroxypropylcellulose) (HPC)
[7] = dose: 200.0 mg/kg/injection, schedule: Q04DX003 (ip), vehicle: Klucel (hydroxypropylcellulose) (HPC)
[8] = dose: 100.0 mg/kg/injection, schedule: Q04DX003 (ip), vehicle: saline
[9] = dose: 200.0 mg/kg/injection, schedule: Q04DX003 (ip), vehicle: saline
[10] = dose: 400.0 mg/kg/injection, schedule: Q04DX003 (ip), vehicle: saline
[11] = dose: 100.0 mg/kg/injection, schedule: Q01DX001 (ip), vehicle: saline
[12] = dose: 200.0 mg/kg/injection, schedule: Q01DX001 (ip), vehicle: saline
[13] = dose: 400.0 mg/kg/injection, schedule: Q01DX001 (ip), vehicle: saline
[14] = dose: 200.0 mg/kg/injection, schedule: Q01DX009 (ip), vehicle: Klucel (hydroxypropylcellulose) (HPC)
[15] = dose: 400.0 mg/kg/injection, schedule: Q04DX003 (ip), vehicle: Klucel (hydroxypropylcellulose) (HPC)
[16] = dose: 400.0 mg/kg/injection, schedule: Q01DX009 (ip), vehicle: Klucel (hydroxypropylcellulose) (HPC)
[17] = dose: 100.0 mg/kg/injection, schedule: Q04DX002 (ip), vehicle: Klucel (hydroxypropylcellulose) (HPC)
[18] = dose: 200.0 mg/kg/injection, schedule: Q04DX002 (ip), vehicle: Klucel (hydroxypropylcellulose) (HPC)

Measured: T/C

COc1ccccc1CN1CCCN(Cc2ccccc2OC)C1c1cc(Br)c(OC)c(OC)c1
inactive: [1] 91 % of control | [2] 91 % of control | [3] 87 % of control

COc1ccc(/C=N/NC(=O)c2ccccc2Cl)cc1OC
inactive: dose: 50.0 mg/kg/injection, schedule: Q01DX009 (ip), vehicle: saline with Tween-80 102 % of control | dose: 100.0 mg/kg/injection, schedule: Q01DX009 (ip), vehicle: saline with Tween-80 91 % of control | dose: 200.0 mg/kg/injection, schedule: Q01DX009 (ip), vehicle: saline with Tween-80 88 % of control

Clc1ccc(NC2=NCCCS2)c2ccccc12
inactive: dose: 25.0 mg/kg/injection, schedule: Q01DX009 (ip), vehicle: Klucel (hydroxypropylcellulose) (HPC) 98 % of control | [4] 102 % of control | [5] 94 % of control and 92 % of control | [6] 97 % of control | [7] 90 % of control

CN1C2CCCCC1C1CCCCC2[N+]1(C)C
inactive: dose: 75.0 mg/kg/injection, schedule: Q01DX001 (ip), vehicle: saline 96 % of control

Clc1ccc2nccnc2c1
inactive: [6] 97 % of control | [7] 107 % of control

N#CCCC1C2CCC(C2)C1C#N (stereo unspecified)
inactive: dose: 3.0 mg/kg/injection, schedule: Q01DX009 (ip), vehicle: Klucel (hydroxypropylcellulose) (HPC) 96 % of control | dose: 3.0 mg/kg/injection, schedule: Q04DX003 (ip), vehicle: Klucel (hydroxypropylcellulose) (HPC) 96 % of control | dose: 6.0 mg/kg/injection, schedule: Q01DX009 (ip), vehicle: Klucel (hydroxypropylcellulose) (HPC) 96 % of control | dose: 6.0 mg/kg/injection, schedule: Q04DX003 (ip), vehicle: Klucel (hydroxypropylcellulose) (HPC) 98 % of control | dose: 12.0 mg/kg/injection, schedule: Q01DX009 (ip), vehicle: Klucel (hydroxypropylcellulose) (HPC) 98 % of control | dose: 12.0 mg/kg/injection, schedule: Q04DX003 (ip), vehicle: Klucel (hydroxypropylcellulose) (HPC) 98 % of control | dose: 12.5 mg/kg/injection, schedule: Q04DX003 (ip), vehicle: Klucel (hydroxypropylcellulose) (HPC) 105 % of control

Nn1cn[nH]c1=S
inactive: [8] 98 % of control | [9] 103 % of control | [10] 98 % of control

c1ccc2c(c1)oc1ccccc12
inactive: [11] 102 % of control | [12] 102 % of control | [13] 96 % of control

NNc1ccc(CC(=O)O)cc1
inactive: [11] 98 % of control | [12] 93 % of control | [13] 98 % of control

COC(=O)C1CN(S(=O)(=O)c2ccccc2)c2ccccc2N1S(=O)(=O)c1ccccc1 (stereo unspecified)
inactive: dose: 100.0 mg/kg/injection, schedule: Q04DX003 (ip), vehicle: acetone 95 % of control | dose: 200.0 mg/kg/injection, schedule: Q04DX003 (ip), vehicle: acetone 100 % of control | dose: 400.0 mg/kg/injection, schedule: Q04DX003 (ip), vehicle: acetone 94 % of control

COc1ccc(/C(C#N)=C2C=C/C(=N/O)c3ccccc3\2)cc1
inactive: dose: 50.0 mg/kg/injection, schedule: Q01DX001 (ip), vehicle: carboxymethylcellulose (CMC) 92 % of control | [1] 92 % of control | [2] 87 % of control | [3] 89 % of control

CC1(C(O)CO)OCCO1 (stereo unspecified)
inactive: dose: 25.0 mg/kg/injection, schedule: Q04DX002 (ip), vehicle: saline 110 % of control | dose: 50.0 mg/kg/injection, schedule: Q04DX002 (ip), vehicle: saline 103 % of control | dose: 200.0 mg/kg/injection, schedule: Q04DX002 (ip), vehicle: saline 107 % of control and 110 % of control | dose: 400.0 mg/kg/injection, schedule: Q04DX002 (ip), vehicle: saline 117 % of control

CC(=O)Nc1c([N+](=O)[O-])ccc(Cl)c1Cl
inactive: [6] 98 % of control | [7] 97 % of control

COc1cc([N+](=O)[O-])c(O)cc1O
inactive: [8] 101 % of control | [9] 100 % of control | [10] 96 % of control

CC(=O)Nc1ccc(OC(=O)Nc2cc(C(F)(F)F)ccc2Cl)cc1
inactive: [5] 93 % of control | [14] 111 % of control

CC(=O)OC1CCC2(C)C3=C(CCC2C1(C)C)C1(C)CCC(C(C)CCC2NC2(C)C)C1(C)CC3 (stereo unspecified)
inactive: dose: 100.0 mg/kg/injection, schedule: Q04DX003 (sc), vehicle: steriod suspending solution 105 % of control | dose: 200.0 mg/kg/injection, schedule: Q04DX003 (sc), vehicle: steriod suspending solution 101 % of control | dose: 400.0 mg/kg/injection, schedule: Q04DX003 (sc), vehicle: steriod suspending solution 105 % of control

CCCCOc1ccc(O)cc1
inactive: dose: 100.0 mg/kg/injection, schedule: Q04DX003 (ip), vehicle: other 117 % of control | dose: 200.0 mg/kg/injection, schedule: Q04DX003 (ip), vehicle: other 100 % of control | dose: 400.0 mg/kg/injection, schedule: Q04DX003 (ip), vehicle: other 108 % of control

COC(=O)NC1CCC(NC(=O)OC)CC1 (stereo unspecified)
inactive: dose: 100.0 mg/kg/injection, schedule: Q01DX001 (ip), vehicle: Klucel (hydroxypropylcellulose) (HPC) 96 % of control | dose: 200.0 mg/kg/injection, schedule: Q01DX001 (ip), vehicle: Klucel (hydroxypropylcellulose) (HPC) 93 % of control | dose: 400.0 mg/kg/injection, schedule: Q01DX001 (ip), vehicle: Klucel (hydroxypropylcellulose) (HPC) 91 % of control

CC1CC(C)CC(NC(=O)NCCCl)C1 (stereo unspecified)
inactive: dose: 20.0 mg/kg/injection, schedule: Q01DX009 (ip), vehicle: Klucel (hydroxypropylcellulose) (HPC) 106 % of control | dose: 40.0 mg/kg/injection, schedule: Q01DX009 (ip), vehicle: Klucel (hydroxypropylcellulose) (HPC) 95 % of control | dose: 80.0 mg/kg/injection, schedule: Q01DX009 (ip), vehicle: Klucel (hydroxypropylcellulose) (HPC) 93 % of control | [6] 103 % of control | [14] 87 % of control | [7] 94 % of control | [15] 92 % of control

O=[N+]([O-])c1ccc(S(=O)(=O)N2CCN(S(=O)(=O)c3ccc([N+](=O)[O-])cc3)C2)cc1
inactive: [4] 93 % of control | [5] 87 % of control and 91 % of control | [6] 91 % of control | [14] 93 % of control | [7] 94 % of control | [16] 101 % of control | [15] 98 % of control

Cc1c2ccc3ccccc3c2c(C)[n+]2ccccc12
inactive: dose: 2.0 mg/kg/injection, schedule: Q01DX Z (ip), vehicle: carboxymethylcellulose (CMC) 122 % of control | dose: 4.0 mg/kg/injection, schedule: Q01DX Z (ip), vehicle: carboxymethylcellulose (CMC) 106 % of control | dose: 8.0 mg/kg/injection, schedule: Q01DX Z (ip), vehicle: carboxymethylcellulose (CMC) 93 % of control

CC(=O)c1cccc(NC(=O)Oc2ccc(-c3ccccc3)cc2Cl)c1
inactive: [5] 98 % of control | [14] 97 % of control | [16] 106 % of control

O=C(Nc1cccc(C(F)(F)F)c1)OCCOc1ccc(Cl)cc1
inactive: [17] 89 % of control | [18] 96 % of control | dose: 400.0 mg/kg/injection, schedule: Q04DX002 (ip), vehicle: Klucel (hydroxypropylcellulose) (HPC) 101 % of control

CN1CC(=O)N=C1N
inactive: [11] 92 % of control | [12] 103 % of control | dose: 200.0 mg/kg/injection, schedule: Q01DX015 (ip), vehicle: saline 91 % of control | dose: 250.0 mg/kg/injection, schedule: Q#A X Z (ip), vehicle: water 109 % of control | [13] 92 % of control | dose: 400.0 mg/kg/injection, schedule: Q01DX015 (ip), vehicle: saline 121 % of control | dose: 500.0 mg/kg/injection, schedule: Q#A X Z (ip), vehicle: water 100 % of control | dose: 800.0 mg/kg/injection, schedule: Q01DX015 (ip), vehicle: saline 94 % of control | dose: 1250.0 mg/kg/injection, schedule: Q#A X Z (ip), vehicle: water 100 % of control | dose: 1600.0 mg/kg/injection, schedule: Q01DX015 (ip), vehicle: saline 100 % of control

O=C1NC(=O)C(Cl)(c2ccccc2)C(=O)N1
inactive: dose: 25.0 mg/kg/injection, schedule: Q04DX003 (ip), vehicle: saline 99 % of control | dose: 50.0 mg/kg/injection, schedule: Q04DX003 (ip), vehicle: saline 87 % of control | [8] 96 % of control

CC(C)(C)N=C(N)N[N+](=O)[O-]
inactive: dose: 50.0 mg/kg/injection, schedule: Q04DX002 (ip), vehicle: Klucel (hydroxypropylcellulose) (HPC) 104 % of control | [17] 100 % of control | [18] 104 % of control
